Results: PubChem BioAssay (NCI)
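How tested: cells in 96-well plates exposed to compound for 48 hours at five concentrations. TGI: concentration producing complete growth inhibition.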

What was measured:
Experiment in all cases: DTP human tumour cell line panel, 48 h
[1] = system: A549 NSCLC
[2] = system: CCRF-CEM leukemia
[3] = system: COLO 205 colon
[4] = system: HCT-116 colon
[5] = system: HL-60(TB) leukemia
[6] = system: MALME-3M melanoma
[7] = system: NCI-H226 lung
[8] = system: NCI-H460 lung
[9] = system: NCI-H522 lung
[10] = system: OVCAR-3 ovarian
[11] = system: OVCAR-4 ovarian
[12] = system: OVCAR-5 ovarian
[13] = system: SK-MEL-5 melanoma
[14] = system: SK-OV-3 ovarian
[15] = system: SN12C renal
[16] = system: SNB-19 CNS
[17] = system: SNB-75 CNS
[18] = system: U251 CNS
[19] = system: UACC-62 melanoma
[20] = system: ACHN renal

Row | Compound | TGI [1] | TGI [2] | TGI [3] | TGI [4] | TGI [5] | TGI [6] | TGI [7] | TGI [8] | TGI [9] | TGI [10] | TGI [11] | TGI [12] | TGI [13] | TGI [14] | TGI [15] | TGI [16] | TGI [17] | TGI [18] | TGI [19] | TGI [20]
1 | COc1ccccc1Cc1nc(-c2ccccc2)nn(C2OC(COC(C)=O)C(OC(C)=O)C(OC(C)=O)C2OC(C)=O)c1=S (stereo unspecified) | > 100 µM | > 100 µM | > 86.9 µM | > 45.9 µM | > 100 µM | 72.3 µM | > 95.7 µM | > 73.5 µM | 36.4 µM | > 85.3 µM | 8.58 µM | > 100 µM | 26.1 µM | > 67.2 µM | 32.2 µM | > 52.7 µM | 15.4 µM | > 31.6 µM | > 80.3 µM | 
2 | COc1cc2c(cc1OC)C(Cl)C(c1ccc(Cl)c(Cl)c1)=C2Cl (stereo unspecified) |  | 16.7 µM | 28 µM |  | 9.47 µM | 40.8 µM | 23.9 µM | 16 µM | > 100 µM | 15.2 µM |  |  | 19.8 µM | 40.5 µM | 26.5 µM | 41.8 µM | 23.9 µM | 16.4 µM | 18.7 µM | 21.8 µM
3 | COc1cc(C(C)c2cc3c(cc2OCCO)OCO3)cc(OC)c1OC (stereo unspecified) | > 100 µM | > 100 µM | 7.47 µM | > 100 µM | 2.02 µM | > 100 µM | > 100 µM | > 100 µM | 2.93 µM |  | > 100 µM | > 100 µM | > 100 µM |  | > 100 µM | > 100 µM | 4.34 µM | > 100 µM | > 100 µM | > 100 µM
4 | Cc1nc2c(sc(=S)n2-c2ccccc2)c(=O)[nH]1 | > 100 µM | > 100 µM | > 100 µM | > 100 µM | > 100 µM | > 100 µM | > 100 µM | > 100 µM | > 100 µM | > 100 µM |  | > 100 µM | > 100 µM | > 100 µM |  | > 100 µM |  | > 100 µM | > 100 µM | > 100 µM
5 | Cc1cn(Cc2cnnn2CC2OC(n3cc(C)c(=O)[nH]c3=O)CC2O)c(=O)[nH]c1=O (stereo unspecified) | > 100 µM | > 100 µM | > 100 µM | > 100 µM |  | > 100 µM | > 100 µM |  |  | > 100 µM | > 100 µM | > 100 µM | > 100 µM | > 100 µM | > 100 µM | > 100 µM |  | > 100 µM | > 100 µM | > 100 µM
6 | COc1cc2cc[n+]3c(C)c4cc(OC)c(OC)cc4c([O-])c3c2cc1OC | > 100 µM | > 100 µM | 48.3 µM | > 100 µM | 48.8 µM | 79.7 µM | > 100 µM | > 100 µM | 42 µM | 24.7 µM | > 100 µM | > 100 µM | > 100 µM | > 100 µM | > 100 µM | > 100 µM | > 100 µM | > 100 µM | > 100 µM | > 100 µM
7 | NCCCN(CCCN)CCN(CCN(CCCN)CCCN)CCN(CCCN)CCCN | > 100 µM |  | > 100 µM | > 100 µM | > 100 µM |  | > 100 µM | > 100 µM | 63.3 µM | > 100 µM | > 100 µM | > 100 µM | > 100 µM | > 100 µM | > 100 µM | > 100 µM | 22.9 µM | > 100 µM |  | > 100 µM
8 | COc1ccc(C2N(NC(=O)c3ccncc3)C(=O)CS2(=O)=O)cc1F (stereo unspecified) | > 100 µM | > 100 µM | > 100 µM | > 100 µM | > 100 µM | > 100 µM | > 100 µM | > 100 µM | > 100 µM |  | > 100 µM | > 100 µM | > 100 µM | > 100 µM | > 100 µM | > 100 µM | > 100 µM | > 100 µM |  | > 100 µM
